Data: US20150191445A1, “ACYL-HYDRAZONE AND OXADIAZOLE COMPOUNDS, PHARMACEUTICAL COMPOSITIONS CONTAINING THE SAME AND USES THEREOF” (Universidade Federal de Santa Catarina, priority 2011, published 2015)

Key:
[1] = test system: Jurkat cells; test: MTT cytotoxicity assay, Jurkat cell line; format: cell-based, human; conditions: 48 h of treatment, read-out: IC50 T (Jurkat)
Description: All compounds were resuspended in DMSO at stock concentration of 20 mM and stored at −20° C. For cytotoxicity testing, the dilutions from the stock solutions were made in culture medium (RPMI-1640 plus 10% of fetal bovine serum, 100 IU/ml penicillin and 100 µg/mL Streptomycin), immediately before being discharged to the cells.
The REH and Jurkat cell lines were maintained in
RPMI-1640 medium with 10% FBS (fetal bovine serum), 100 IU/mL penicillin, 100 µg/mL streptomycin and incubated at 37° C. and 5% CO2. Cytotoxicity assays were performed according to the method described in the literature (Pieters, R.; et al. In vitro drug sensitivity of cells from children with leukemia using the MTT assay with improved culture conditions. Blood, 1990, 76, 2327-2336; Pieters, R.; et al. Relation of cellular drug resistance to long-term clinical outcome in childhood acute lymphoblastic leukaemia. Lancet, 1991, 338, 399-403 e Kaspers, G. J.; et al. In vitro cellular drug resistance and prognosis in newly diagnosed childhood acute lymphoblastic leukemia. Blood, 1997, 90, 2723). Cells were resuspended at a concentration of 3.75 10^5 cells/mL in culture medium as described. Eighty microliters of this suspension were seeded into plates with 96 round-bottom wells, containing 20 microliters of different concentrations of compound or vehicle alone. Each treatment was done in triplicate. After 48 hours of incubation at 37° C. and 5% CO2, 20 μL of MTT solution was added (5 mg/mL of 1x PBS), followed by further incubation for 4 hours and 30 minutes at 37° C. and 5% CO2. During these 4 hours and 30 minutes, MTT (yellowish) is metabolized to formazan salt (bluish in color) by living cells. After this, 100 μL sodium dodecyl sulphate (SDS) 10%+0.1M of HCl were added to dissolve the formazan crystals. After incubating overnight, absorbance reading at 570 nm was carried out. The percentage of cells surviving the treatment were calculated relative to the number of surviving cells in the medium without addition of the compounds in question (“negative control”).
c) Determination of IC: IC50 is defined as the concentration of a compound at which 50% of maximal inhibition is obtained. After reading the absorbance, survival curves were constructed and the values of IC50 were obtained with the GraphPad Prism software.

[2] = test system: healthy and phytohemagglutinin-stimulated lymphocytes; test: MTT assay on normal lymphocytes stimulated with phytohemagglutinin; format: cell-based, human; conditions: for Percentage of survival: 48 h, MTT
Description: for the test of compound 07 against normal lymphocytes, blood from human donors was separated in a ficoll gradient and the mononuclear cells were cultivated at 200,000 cells/well, in 80 microliters of RPMI-1640 (containing 10% FBS, 100 IU/mL penicillin and 100 μg/mL streptomycin) and 20 microliters of phytohemagglutinin solution (Cultilab) in each well for stimulation of T lymphocytes. Compound 07 was added in serial dilutions (50%) from 300 to 1 nm. As a control, parallel tests were run with cells from leukemic Jurkat and REH cell lines, and experiments with colchicine with the same concentrations as compound 07. Cytotoxicity was assessed after 48 hours by the MTT method, as described Above.

[3] = test system: Bone marrow cells from healthy donors; test: Colony formation assay of hematopoietic cells; format: cell-based, human; conditions: for Colony formation BFU-E / Colony formation CFU-E / Colony formation CFU-G / Colony formation CFU-GEMM / Colony formation CFU-GM / Colony formation CFU-M: two weeks of culture
Description: Cytotoxicity of compound 07 was also evaluated with a colony formation assay of hematopoietic cells. A “HSC-CFU complete with Epo” kit from Miltenyi (Cat #130-091-280) was used following the manufacturer's recommendations. Bone marrow cells from healthy donors were cultured in semi-solid methylcellulose medium supplemented with bovine fetal serum, bovine serum albumin, different growth factors (GM-CSF, G-CSF, SCF, IL-3, IL-6, Epo) and compound 07, whose action on hematopoiesis was evaluated. After two weeks of culture at 37° C. and 5% CO2, an assessment of the number of granulocytes (CFU-G), macrophage (CFU-M), granulocyte/macrophage (CFU-GM), erythroid (BFU-E and CFU-E) and mixed (CFU-GEMM) colonies was carried out.

[4] = test system: Jurkat cells; test: Cell cycle analysis, propidium iodide flow cytometry; format: cell-based, human; conditions: 125 nM, 18 h
Description: The cells were incubated for 12 hours in fresh medium before experiments. Two million cells from the Jurkat line were incubated for 12 h, 18 h, 24 h and 30 h in RPMI-640 medium supplemented with 10% Fetal Bovine Serum (FCS) and 0.2% Penicillin/Streptomycin (PS) with a concentration of 125 nM of compound 07 or DMSO (vehicle).
The cells treated or not with compound 07 were fixed in 70% ethanol for 2 hours, washed in PBS and incubated for 15 min at 37° C. in 1 mL of Triton X-100 0.1% 0.2 mg/mL of RNAse and 20 μg/mL propidium iodide in PBS. 20,000 events were collected on FACSCalibur flow cytometer with red fluorescence quantification, excluding any cell aggregates by the standard width vs. red fluorescence peak area. The data deconvolution to obtain the percentage of cells in each phase of cell cycle was performed using ModFit software v2.0.

[5] = target: Trypanosoma cruzi cruzain (Trypanosoma cruzi, UniProt P25779); conditions: cited from earlier work
Sequence of Trypanosoma cruzi cruzain (P25779 123-467): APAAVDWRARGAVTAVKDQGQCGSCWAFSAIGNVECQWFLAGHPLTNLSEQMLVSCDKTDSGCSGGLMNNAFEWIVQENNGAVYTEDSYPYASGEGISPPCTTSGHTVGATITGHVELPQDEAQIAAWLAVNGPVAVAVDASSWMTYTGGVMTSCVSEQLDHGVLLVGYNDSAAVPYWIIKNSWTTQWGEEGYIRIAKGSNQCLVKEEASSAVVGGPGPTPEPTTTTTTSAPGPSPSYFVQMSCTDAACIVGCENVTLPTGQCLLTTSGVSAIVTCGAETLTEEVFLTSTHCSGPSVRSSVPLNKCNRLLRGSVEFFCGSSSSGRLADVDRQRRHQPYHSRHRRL

COc1cc(C(=O)NN=Cc2cccc3ccccc23)cc(OC)c1OC [Compound 07]
IC50 [1]: 15.7 nM
effect on normal lymphocytes induced by phytohemagglutinin [2]: do not appear to affect normal lymphocytes
selectivity for leukemic cells compared to healthy human lymphocytes [2]: ~10 times
Percentage of survival ([2]; 4.6 nM): 103%
Percentage of survival ([2]; 9.38 nM): 105%
Percentage of survival ([2]; 18.75 nM): 105%
Percentage of survival ([2]; 37.5 nM): 101%
Percentage of survival ([2]; 75 nM): 108%
Percentage of survival ([2]; 150 nM): 107%
Percentage of survival ([2]; 300 nM): 95%
Colony formation BFU-E ([3]; 2 nM): 39%
Colony formation CFU-E ([3]; 2 nM): 23%
Colony formation CFU-G ([3]; 2 nM): 11%
Colony formation CFU-GEMM ([3]; 2 nM): 1%
Colony formation CFU-GM ([3]; 2 nM): 52%
Colony formation CFU-M ([3]; 2 nM): 17%
effect on erythrocyte formation ([3]; 20 nM): inhibitory activity on erythrocyte formation comparable to a PI3K inhibitor
effect on granulocytes and macrophages ([3]; 20 nM): inhibitory activity against granulocytes and macrophages, although low in intensity when compared to a F13K inhibitor
Colony formation BFU-E ([3]; 20 nM): 26%
Colony formation CFU-E ([3]; 20 nM): 11%
Colony formation CFU-G ([3]; 20 nM): 14%
Colony formation CFU-GEMM ([3]; 20 nM): 2%
Colony formation CFU-GM ([3]; 20 nM): 27%
Colony formation CFU-M ([3]; 20 nM): 25%
effect on hematopoiesis ([3]; 200 nM): completely inhibited hematopoiesis
Colony formation BFU-E ([3]; 200 nM): 0%
Colony formation CFU-E ([3]; 200 nM): 0%
Colony formation CFU-G ([3]; 200 nM): 0%
Colony formation CFU-GEMM ([3]; 200 nM): 0%
Colony formation CFU-GM ([3]; 200 nM): 0%
Colony formation CFU-M ([3]; 200 nM): 0%
effect on cell cycle [4]: cell cycle arrest in G2/M
inhibitory activity of cruzain [5]: did not show inhibitory activity
